# Assay results taken from US5800838A, “Composition that inhibits or destroys at least one unicellular living organism containing fluorine F- and Lithium li+” (priority 1987, dated 1998).
# Where two headings read alike, the source gives them in different places.
# Key:
# [1] = tested on: Haemophilus influenzae; assay: Antibiotic activity on hospital strains normally resistant to amoxicillin; format: cell-based
# [2] = tested on: staphylococcus aeurus; format: cell-based; conditions: Fli 4 ppm
# Protocol: Strains Gram+ and Gram- (wild-type hospital) having a resistant phenotype vis a vis standard firstly and secondly used antibiotherapy were experimented on activated antibiotics.
# 250 experiments were conducted on the following strains: Streptococcus group B, C, D, F, G, Staphylococcus aureus, Staphylococcus epidermitis, Klebsiella pneumoniae, Klebsiella spirochete, Klebsiella oxytoca, Proteus mirabilis, Serratia marcescens, Escherichia coli, Citrobacter freundii, Enterobacter cloacae, Enterobacter calcoaceticus, Salmonella spirochete, Salmonella typhimurium, Pseudomonas aeruginosa, Haemophilus influenzae, Haemophilus sphrophilus, Acinetobacter calcoaeticus. […]
# [3] = tested on: Haemophilus influenzae producing β-lactamase; assay: Antibiotic activity of amoxicillin on hospital strains producing β-lactamase (Example 22); conditions: 4 ppm amoxicillin in the presence of 1 ppm clavulanic acid
# [4] = tested on: Escherichia coli (TEM plasmid); assay: microbe, parasite or virus in culture; format: cell-based
# [5] = tested on: β-Haemolytic streptococcus; assay: Antibiotic activity on hospital strains normally resistant to amoxicillin; format: cell-based; conditions: read-out: 100% inhibitory concentration
# [6] = tested on: Staphylococcus aureus; assay: as above; format: cell-based; conditions: read-out: 100% inhibitory concentration
# [7] = tested on: Klebsiella pneumoniae; assay: as above; format: cell-based; conditions: read-out: 100% inhibitory concentration
# [8] = tested on: Staphylococcus aureus
# Protocol: Concentration series of two antibiotic substances A and B are prepared in the geometric ratio of 2 are combined and the following values are determined:
# MIC B/A = minimal inhibiting concentration B in presence of A [formula]
# The MIC of the bacteriostatic effect is read when the percentage of surviving strains is less or equal to 1%.
# The combination of the substances A and B is synergistic as regards the bacteriostatic effect when FIC≤0,75. The combination is additive when FIC=1. The combination is insensible when 1<FIC≤2. The combination is antagonistic when FIC>2.
# Substance A was tetracycline (concentration serie from 0,25 to 128 mg/l)
# Substance B was Fli (concentration serie from 0,25 to 16 mg/l)
# The strain was staphylococcus aureus (wild-type hospital resistant strain)
# [9] = tested on: spermatozoa; assay: SANDERS-CRAMER total spermicidal test according to IPPF standards; format: cell-based; conditions: alone
# [10] = tested on: salmonella spirochete; assay: "Time killing curve", optical density at 600 nm; format: cell-based; conditions: Fli 32 ppm
# Protocol: (§1) The kinetics of the bacterial growth of serratia marcescens and salmonella spirochete has been studied with the "Time killing curve" methodology, for gentamicine (64 ppm) alone, Fli (32 ppm) and gentamicine (64 ppm) in presence of Fli (32 ppm). The bacterial growth is determined by spectrophotometric reading of the optical density for a wavelength of 600 nm.
# (§2) The following table illustrates the optical density (1/100) obtained: […]
# [11] = tested on: serratia marcescens; assay: "Time killing curve", optical density at 600 nm; format: cell-based; conditions: Fli 32 ppm
# Protocol: as §1, §2
# [12] = tested on: serratia marcescens; assay: MIC of gentamicine, inclined agar with concentration gradient; format: cell-based; conditions: alone; SENSIBLE strains
# Protocol: (§3) The strains used were wild-type hospital strains having a resistant phenotype as regards gentamicine: pseudomonas aeruginosa, proteus mirabilis, serratia marcescens.
# (§4) The phenotype of the strains was determined by diffusion in gradient on selective agar. Then, each group of strains having the same phenotype (resistant or sensible) was seeded on inclined agar having a gradient of concentration of the composition.
# (§5) This methodology is explained by SZYBALSKI and BRYSON in "Selection de mutants resistant aux antibiotiques", L'antibiogramme, Vigot, p. 259-260.
# (§6) The results are shown in the following table illustrating the MIC of gentamicine (aminoglycoside antibiotic).
# (§7) x/y means a concentration read between x ppm and y ppm.
# [13] = tested on: proteus mirabilis; assay: as above; format: cell-based; conditions: alone; SENSIBLE strains
# Protocol: as §3, §4, §5, §6, §7
# [14] = tested on: Pseudomonas aeruginosa; assay: as above; format: cell-based; conditions: alone; SENSIBLE strains
# Protocol: as §3, §4, §5, §6, §7
# [15] = tested on: proteus mirabilis; assay: "chess" test, dilution in liquid medium, Trial 2; format: cell-based
# Excerpt: (§8) Substance A was gentamicine
# The strain was a very resistant proteus mirabilis (wild-type hospital)
# [16] = tested on: pseudomonas aeruginosa and Escherichia coli; format: cell-based
# Excerpt: It is known that a strain develops a resistance against an antibiotic substance with which it is left in contact, by a phenotypical mutation procedure.
# This phenomena has been studied on pseudomonas aeruginosa and Escherichia coli (wild-type hospital strains) which commonly develop resistance against aminosides. The antibiotic substance choosen was thus gentamicine which is an aminoside antibiotic.
# And the growth of the resistance was studied with gentamicine alone, then with gentamicine in presence of Fli.
# The trial was conducted on 12 days, and the MIC of gentamicine alone and of gentamicine in presence of Fli (4 ppm) was determined each day on transportplates in liquid medium with a serie of dilution in Mueller/Hinton agar.
# The MBC (Minimal Bactericide Concentration) was also determined from the solution after determination of the MIC seeded on agar adapted to the strain. The MBC is read for a percentage of survivors less than 0,20%.
# [17] = tested on: Klebsiella pneumoniae; assay: "chess" test, dilution in liquid medium, Trial 3; format: cell-based
# Excerpt: as §8
# The strain was Klebsiella pneumoniae (wild-type hospital strain)
# [18] = tested on: MAC COY cells; assay: Cytotoxic activity with respect to MAC COY cells; conditions: LiF at 1 mg/l; benzalkonium chloride under the conditions of the trials
# [19] = tested on: Pseudomonas aeruginosa; assay: "chess" test, dilution in liquid medium, Trial 4; format: cell-based
# Excerpt: as §8
# The strain was pseudomonas aeruginosa (wild-type hospital resistant strain)
# [20] = read-out: 100% inhibitory concentration, alone
# [21] = alone, wild-type hospital resistant strain
# [22] = B (Fli) in presence of A (gentamicine)
smiles,measurement,setting,value
CC1(C)S[C@@H]2[C@H](NC(=O)[C@H](N)c3ccc(O)cc3)C(=O)N2[C@H]1C(=O)O [amoxicillin],MIC,"[1]; in the presence of LiF 8 ppm, read-out: 100% inhibitory concentration",32 µg/mL
same,MIC,[1]; [20],> 128 µg/mL
same,phenotype in presence of Fli,[2],the resistant phenotype was not changed
same,time to inhibition of the strains to 100%,[3],24 h
same,MIC,[4]; [20],> 128 µg/mL
same,MIC,"[4]; read-out: 100% inhibitory concentration, in the presence of LiF 8 ppm",32 µg/mL
same,MIC,[5]; alone,16 µg/mL
same,MIC,[5]; in the presence of LiF 8 ppm,4 µg/mL
same,MIC,[6]; alone,32 µg/mL
same,MIC,[6]; in the presence of LiF 8 ppm,8 µg/mL
same,MIC,[7]; alone,64 µg/mL
same,MIC,[7]; in the presence of LiF 8 ppm,2 µg/mL
[F-].[Li+] [lithium fluoride],MIC B/A,[8]; B (Fli) in presence of A (tetracycline),16 µg/mL
same,"MIC alone (MIC A, MIC B)",[8]; [21],64 µg/mL
same,MIC,[9],~3 ppm
same,"MIC, equivalent in %",[9],~0.0003%
same,optical density (1/100),"[10]; 3 h 00, gentamicine 64 ppm",14 1/100
same,optical density (1/100),"[10]; 24 h 00, gentamicine 64 ppm",20 1/100
same,optical density (1/100),"[11]; 3 h 00, gentamicine 64 ppm",13 1/100
same,optical density (1/100),"[11]; 6 h 00, gentamicine 64 ppm",15 1/100
same,optical density (1/100),"[11]; 24 h 00, gentamicine 64 ppm",18 1/100
same,MIC,[12],> 32 ppm or mg/l
same,MIC,[13],> 32 ppm or mg/l
same,MIC,[14],> 32 ppm or mg/l
same,MIC B/A,[15]; [22],16 µg/mL
same,"MIC alone (MIC A, MIC B)","[15]; alone, very resistant wild-type hospital strain",128 µg/mL
same,effect on creation of resistance,[16],retards the creation of the resistance and reduces to the half the capability of each strain for developping such resistances
same,resistance developed by the strain,"[16]; against Fli, 12 days",no resistance is developped
same,MIC B/A,[17]; [22],32 µg/mL
same,"MIC alone (MIC A, MIC B)","[17]; alone, wild-type hospital strain",128 µg/mL
same,toxic activity,[18],does not have toxic activity
same,MIC B/A,[19]; [22],16 µg/mL
same,"MIC alone (MIC A, MIC B)",[19]; [21],128 µg/mL
